pIC50: −log10 of the molar value. Read-outs that look alike come from different tables or passages of the source.

Results on 13 compounds are retold here after US20160115186A1, “PHOSPHORIC ACID/PHOSPHONIC ACID DERIVATIVES AND MEDICINAL USES THEREOF” (priority 2013, published 2016).

Data set [1] has as its system liver damage in mice caused by D-aminogalactose. Format: in vivo, Kunmin mice. The note with it: serum, D-aminogalactose 750 mg/kg model, 0.2 mmol oral twice, 24 hours after second administration. The procedure:
Kunmin mice (20 g) were grouped randomly (8/group). 0.2 mmol of a compound to be tested was orally administered; after 2 hours post-dosing, D-aminogalactose was intraperitoneally injected at a dose of 750 mg/kg to prepare a liver damage model, and the normal saline was subcutaneously injected as a normal control group. After modeling for 12 hours, 0.2 mmol of the compound to be tested was orally administrated again. After 24 hours from the second administration, blood samples were collected to take serum specimen so as to determine ALT, AST.

Data set [2] is described as follows: Evaluation of liver targeting property (active drug in liver and blood, HPLC-MS/MS). The settings on record: intragastric, dose equimolar to fosfomycin 200 mg/kg, active drug (free phosphonic or phosphoric acid). Format: in vivo, Balb/C mice. The text has this:
Instrument: Finnigan Co. USA, TSQ Quantum-type liquid chromatography-mass spectrometry (LC/MS/MS), consisting of Finnigan Surveyor LC pump. Surveyor AS automatic sampler, electrospray ionization source (ESI) and triple tandem mass spectrometer. The control software is X calibur 1.4, Lcquan 2.0 data processing system is used for mass spectrometry data analysis. The chromatography column is Discovery ODS column (250 mm×4.6 mm, 5 μm), C18 guard column (4 mm×3.0 mm), the mobile phase is methanol-water-formic acid (10-30:90-70:0.5, V/V/V), the flow rate is 0.7 ml/min; the sample amount is 20 μL; and the column temperature is room temperature.

The subject of data set [3] is liver damage in mice caused by CCl4. Format: in vivo, Kunmin mice. The settings on record: serum, CCl4 model, 0.2 mmol oral twice, 24 hours after second administration. The procedure:
Kunmin mice (20 g) were grouped randomly (8/group). 0.2 mmol of a compound to be tested was orally administered; after 1 hour post-dosing, a 0.1% peanut oil solution of CCl4 was subcutaneously injected (10 mL/kg), to prepare a liver damage model; the normal saline was injected as a normal control group. After modeling for 12 hours, 0.2 mmol of the compound to be tested was orally administrated again. After 24 hours from the second administration, blood samples were collected to take serum specimen so as to determine ALT, AST.

In a further data set the test system is DHBV. Description: animal or person. Type of data set: in vivo, sheldrakes. The settings on record: serum DHBV DNA; for inhibition in vivo at 10 mg/kg / inhibition in vivo at 0.5 mg/kg / inhibition in vivo at 20 mg/kg: Duck hepatitis B virus, po, 336 h; for inhibition in vivo at 0.5 mg/kg: 0.5 mg/kg intragastric once a day for 14 days; for inhibition in vivo at 20 mg/kg: 20 mg/kg intragastric once a day for 14 days. The procedure:
The sheldrakes infected by vertical transmission and being positive in DHBV DNA detection were grouped randomly, 5/group. Water and different doses of the compound to be tested were intragastrically administrated, respectively, once a day, for 14 days. Venous blood samples were collected pre-dosing, at day 14 of dosing and at day 7 after drug withdrawal, the serum DHBV DNA content was measured using external standard TaqMan real-time fluorescence PCR method, and the inhibition ratio was calculated, as compared to the solvent group.

The next data set relates to HBV. In words: microbe, parasite or virus in culture. Format: cell-based. The note with it: Hep G 2.2.15 cells, HBV DNA in supernate at day 10 post-dosing, read-out: IC50. As for the experimental part:
At day 10 post-dosing, 100 μl supernate was taken and the content of HBV DNA was measured by the method of Quantitative PCR to calculate IC50 value.

The next data set deals with Hep G 2.2.15 cells. Description: in vitro. Type of data set: cell-based. The settings on record: MTT, day 3 post-dosing. As for the experimental part:
(§1) Hep G 2.2.15 cells were inoculated in a 96-well plate (with cell number being 5.5×10^4) to continually cultivate for 3 days, new culture solutions containing different concentrations of drugs were added, and 3 wells were provided in parallel; at day 3 post-dosing, MTT was added until 7.5 mg/ml, and continued to cultivate for 2 hours, the supernate was discarded, isopropanol containing 10% […] was added, 120 μl/well, and 0.4 μl/well was further added.

A further data set can be described thus: in vitro. The settings on record: human; Hep G 2.2.15 cells, MTT, day 3 post-dosing. Format: cell-based. As for the experimental part:
as §1

For data set [4] the following is noted: Kamiya et al. 2002; read-out: cytotoxicity CC50; cited from earlier work.
The conditions of data set [5]: after MCC-478, phase I clinical trial, Chan et al. 2005; cited from earlier work.
The mark [6] stands for this setting: 25 mg/kg intragastric once a day for 14 days.
The mark [7] stands for this setting: 10 mg/kg intragastric once a day for 14 days.
[8] abbreviates: Hepatitis B virus, HepG2.2.15, 240 h.
Where [9] appears, read: read-out: Inhibition ratio (%) Day 14 of dosing.
The mark [10] stands for this setting: read-out: Inhibition ratio (%) day 7 after drug withdrawal.

One may read the pIC50 as the negative decadic logarithm of the IC50, by convention in mol/L. For `CC(C)OC(=O)[C@H](C)N[P@@](=O)(CO[C@H](C)Cn1cnc2c(N)ncnc21)Oc1ccc2c(c1)OCO2` [Compound I21-a], the ALT in data set [1] was 379 U/L; in data set [3], 353 U/L. For the same compound, the values for the AST in data set [1] and in data set [3] were 169 U/L and 191 U/L, respectively. The figures for the Cliver/Cblood in [2] (1 h post-dosing) and in [2] (6 h post-dosing) were 8.45 and 12.02, respectively. In addition, the “Inhibition ratio (%) Day 14 of dosing” value in the data set on DHBV (setting [6]) came to 70.8%. The “Inhibition ratio (%) day 7 after drug withdrawal” value in the data set with DHBV (setting [6]) turned out to be 25.0%. Besides, the pIC50 with HBV was 6.82.
Usually CC50 stands for the concentration that lowers cell viability or growth by half. In data set [1], `CC(C)OC(=O)C(C)NP(=O)(OCCOCn1cnc2c(=O)[nH]c(N)nc21)Oc1ccc2c(c1)OCO2` (centres unmarked) [Compound I27] had an ALT of 713 U/L and an AST of 522 U/L. In data set [2] (1 h post-dosing), the Cliver/Cblood worked out at 11.75. In addition, the Cliver/Cblood in [2] (6 h post-dosing) is given as 8.02. Further, in data set [3], the ALT worked out at 663 U/L and the AST worked out at 940 U/L. For the same compound, in the data set with DHBV (setting [7]), the “Inhibition ratio (%) Day 14 of dosing” value stood at 80.6% and the “Inhibition ratio (%) day 7 after drug withdrawal” value is 10.5%. In addition, in the data set with Hep G 2.2.15 cells, the CC50 was > 200000 nM. Moreover, the pIC50 with HBV is 7.46.
Take `COc1nc(N)nc2c1ncn2COCCOP(=O)(N[C@H](C)C(=O)OC(C)C)Oc1ccc2c(c1)OCO2` (some centres unmarked) [Compound I29]: the figures for the ALT in data set [1] and in data set [3] were 301 U/L and 307 U/L, respectively. For the same compound, the figures for the AST in data set [1] and in data set [3] were 510 U/L and 561 U/L, respectively. In addition, the inhibition in vivo at 10 mg/kg in the data set with DHBV (10 mg/kg intragastric once a day for 14 days, read-out: Inhibition ratio (%) Day 14 of dosing) was determined as 90.8%; with DHBV (10 mg/kg intragastric once a day for 14 days, read-out: Inhibition ratio (%) day 7 after drug withdrawal), 17.1%. In addition, in “in vitro”, the CC50 is > 200000 nM. Moreover, the pIC50 with HBV (setting [8]) is 6.85.
Take `COc1ccc(Sc2nc(N)nc3c2ncn3CCOCP(=O)(O)OCC(F)(F)F)cc1` [Compound 602074]: the CC50 in data set [4] is 548000 nM.
In the case of `CC(NP(=O)(OCCOCn1cnc2c(=O)[nH]c(N)nc21)Oc1ccc2c(c1)OCO2)C(=O)OC1CCCCC1` (centres unmarked) [Compound I28], the CC50 with Hep G 2.2.15 cells is > 200000 nM.
Take `C=C1[C@H](CO[P@](=O)(N[C@@H](C)C(=O)OC(C)C)Oc2ccc3c(c2)OCO3)[C@@H](O)C[C@@H]1n1cnc2c(=O)[nH]c(N)nc21` [Compound I38-a]: the ALT in data set [1] was 177 U/L; in data set [3] it was 410 U/L. The values for the AST in [1] and in data set [3] were 275 U/L and 289 U/L, respectively. The inhibition in vivo at 0.5 mg/kg in the data set with DHBV (setting [9]) was determined as 76.2%; in the data set on DHBV (setting [10]) it was 31.4%. In “in vitro”, this compound registered a CC50 of 139000 nM. The pIC50 with HBV (setting [8]) is 9.00.
In the case of `COC(=O)C(C)NP(=O)(OCCOCn1cnc2c(=O)[nH]c(N)nc21)Oc1ccc2c(c1)OCO2` (centres unmarked) [Compound I41], in the data set with DHBV (setting [7]), the “Inhibition ratio (%) Day 14 of dosing” value is 72.5% and the “Inhibition ratio (%) day 7 after drug withdrawal” value stood at 15.7%. In the data set on Hep G 2.2.15 cells, the CC50 was > 200000 nM.
In [1], `CC(C)OC(=O)[C@H](C)N[P@](=O)(CO[C@H](C)Cn1cnc2c(N)ncnc21)Oc1ccc2c(c1)OCO2` [Compound I21-b] registered an ALT of 514 U/L and an AST of 268 U/L. The Cliver/Cblood in [2] (1 h post-dosing) is recorded as 9.15. Also, the Cliver/Cblood in data set [2] (6 h post-dosing) came out at 14.37. In data set [3], this compound returned an ALT of 251 U/L and an AST of 152 U/L. For the same compound, in the data set on DHBV (setting [6]), the “Inhibition ratio (%) Day 14 of dosing” value amounted to 82.3% and the “Inhibition ratio (%) day 7 after drug withdrawal” value turned out to be 39.2%. In the data set on HBV, the pIC50 was 7.92.
As to “(benzo[1,3]dioxolan-5-yl) [5-[2-amino-5-(2-methylpropyl)-thiazol-4-yl]-furan-2-yl]-phosphonate-(1-isopropoxycarbonylethylamino)-phosphonamide [Compound I43]”, in [1], the ALT is listed as 256 U/L and the AST turned out to be 517 U/L. In data set [3], this compound had an ALT of 507 U/L and an AST of 280 U/L. Further, in the data set on Hep G 2.2.15 cells, the CC50 was > 200000 nM.
`COc1ccc(Sc2nc(N)nc3c2ncn3CCOCP(=O)(O)O)cc1` [Compound 602076]: in data set [5], the “blood concentration relative to that of the monoester 602074” value was “one tenth”.
In the case of `COC(=O)C(C)NP(=O)(OCC1OC(n2ccc(N)nc2=O)CS1)Oc1ccccc1` (centres unmarked) [Cf1109, reference compound], the ALT in data set [1] came out at 191 U/L; in data set [3], 2048 U/L. For the same compound, the values for the AST in [1] and in data set [3] were 140 U/L and 3351 U/L, respectively. The inhibition in vivo at 20 mg/kg in the data set with DHBV (setting [9]) worked out at 68.8%; in the data set on DHBV (setting [10]) it was 5.38%. The compound further had a CC50 in the data set “in vitro” of 82000 nM. In addition, the negative logarithm of the IC50 (pIC50) in the data set with HBV (setting [8]) was 6.89.
With `CC(C)OC(=O)[C@H](C)N[P@](=O)(CO[C@H](C)Cn1cnc2c(N)ncnc21)Oc1ccccc1.O=C(O)/C=C/C(=O)O` [GS-7340, 9-[(R)-2-[[(S)-[[(S)-1-(isopropoxycarbonyl)-ethyl]-amino]-phenoxylphosphonyl]-methoxyl]-propyl]-adenine fumarate, reference compound], in [1], the ALT turned out to be 1064 U/L and the AST amounted to 1320 U/L. Also, in data set [3], the ALT was determined as 2483 U/L and the AST was found to be 2645 U/L. The same compound returned a CC50 with Hep G 2.2.15 cells of 94200 nM. Moreover, the negative-log IC50 (pIC50) in the data set with HBV was 7.15.
`C=C1[C@H](CO[P@@](=O)(N[C@@H](C)C(=O)OC(C)C)Oc2ccc3c(c2)OCO3)[C@@H](O)C[C@@H]1n1cnc2c(=O)[nH]c(N)nc21` [Compound I38-b]: the ALT came out at 217 U/L in data set [1] and 162 U/L in [3]. Besides, the AST in data set [1] was 493 U/L; in [3], 387 U/L. Besides, the values for the inhibition in vivo at 0.5 mg/kg in the data set on DHBV (setting [9]) and in the data set on DHBV (setting [10]) were 96.4% and 63.4%, respectively. For the same compound, the CC50 in the data set “in vitro” was > 200000 nM. Further, the pIC50 with HBV (setting [8]) was 7.05.
